Data: patent publication US9487489B2, “Halogen-substituted pyrazole derivatives as pest-control agents” (BAYER CROPSCIENCE AKTIENGESELLSCHAFT, priority 2013, dated 2016)

Key:
[1] = system: green peach aphid (Myzus persicae); assay: Myzus persicae spray test (MYZUPE); assay type: in vivo; conditions: Chinese cabbage leaf discs, after 6 days
Procedure: G. Myzus persicae-spray Test (MYZUPE)
Solvents: 78 parts by weight of acetone
• 1.5 parts by weight of dimethylformamide Emulsifier: alkylaryl polyglycol ether
To produce a suitable preparation of active compound, 1 part by weight of active compound is dissolved using the stated parts by weight of solvent and made up with water comprising an emulsifier concentration of 1000 ppm until the desired concentration is reached. To produce further test concentrations, the preparation is diluted with emulsifier-containing water.
Discs of Chinese cabbage leaves (Brassica pekinensis) infested by all stages of the green peach aphid (Myzus persicae) are sprayed with an active compound preparation of the desired concentration.
After 6 days, the efficacy in % is determined 100% here means that all of the aphids have been killed; 0% means that no aphids have been killed.

[2] = system: larvae of the mustard beetle (Phaedon cochleariae); assay: Phaedon cochleariae spray test (PHAECO); assay type: in vivo; conditions: Chinese cabbage leaf discs, after 7 days
In short: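 Kill of mustard beetle larvae is read as % mortality 7 days after spraying. Spray liquid: active compound in acetone plus dimethylformamide, brought up with water holding 1000 ppm alkylaryl polyglycol ether emulsifier and diluted further in emulsifier-water.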

[3] = system: caterpillars of the armyworm (Spodoptera frugiperda); assay: Spodoptera frugiperda spray test (SPODFR); assay type: in vivo; conditions: maize leaf discs, after 7 days
In short: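 Percent kill read at day 7 on caterpillar-infested maize leaf discs. Discs were first sprayed with aqueous emulsifier-containing (1000 ppm) preparations made from acetone/dimethylformamide solutions, and dried. Scale: 0% none dead, 100% all dead.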

[4] = system: engorged adult female cattle ticks (Boophilus microplus); assay: Boophilus microplus injection test (BOOPMI Inj); assay type: in vivo; conditions: application rate 20 μg/animal; injection into abdomen; assessed after 7 days
In short: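 Efficacy is read at 7 days as fertile egg laying (100% = no fertile eggs laid; 0% = all eggs fertile), with eggs of unclear fertility stored until larvae hatch at about 42 days. Five engorged adult females per dose each receive an abdominal injection of 1 μl compound dissolved in DMSO.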

[5] = system: adult cat fleas (Ctenocephalides felis); assay: Ctenocephalides felis oral test (CTECFE); assay type: in vivo; conditions: application rate 100 ppm in citrated cattle blood; after 2 days
In short: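 Mortality read at 2 days as percent of fleas killed. Compound predissolved in DMSO, diluted into citrated cattle blood and offered to roughly 20 unfed adult C. felis via parafilm membrane feeder.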

[6] = system: L1 larvae of the Australian sheep blowfly (Lucilia cuprina); assay: Lucilia cuprina test (LUCICU); assay type: in vivo; conditions: application rate 100 ppm; after 2 days
In short: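 Percent mortality read at 2 days; 100% = all larvae killed, 0% = none. Test compound, predissolved in DMSO and water-diluted to the wanted level, was mixed into minced horsemeat holding roughly 20 first-instar larvae.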

[7] = system: greenhouse red spider mite (Tetranychus urticae); assay: Tetranychus urticae spray test, OP-resistant (TETRUR); assay type: in vivo; conditions: bean leaf discs, after 6 days
In short: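 Percent kill, scored 6 days post-spray (0% = none dead, 100% = all dead), on Phaseolus vulgaris leaf discs infested with every life stage of the OP-resistant spider mite. Compound dissolved in acetone plus DMF, diluted to test concentration with emulsifier-containing water (1000 ppm).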

[8] = system: adult houseflies (Musca domestica); assay: Musca domestica test (MUSCDO); assay type: in vivo; conditions: application rate 100 ppm; after 2 days
In short: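 Groups of 10 adult Musca domestica exposed to a sugar-soaked sponge treated with the water-diluted DMSO preparation of compound at the chosen concentration. Percent kill read at day 2, where 0% means no flies killed and 100% all killed.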

[9] = system: adult cat fleas (Ctenocephalides felis); assay: Ctenocephalides felis in vitro contact test with adult cat fleas (T1); conditions: after 48 h
In short: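 Adult cat fleas (Ctenocephalides felis), 5-10 per tube, were exposed to the inner surface of 25 ml test tubes coated with compound in acetone. Tubes were incubated lying flat under ambient conditions. Efficacy was then read by standing tubes upright and knocking the fleas to the floor. Fleas that stayed motionless or moved uncoordinatedly counted as dead or moribund, where 100% means all fleas dead or moribund and 0% means none harmed.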

[10] = logP determination by HPLC on a reversed-phase column (C18), EEC Directive 79/831 Annex V.A8; assay type: physicochemical; conditions: HPLC on reversed-phase column (C18), acetonitrile/water with formic acid, EEC Directive 79/831 Annex V.A8
In short: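 Per EEC 79/831 Annex V.A8, values derive from HPLC retention at 2.0 ml/min and 55° C on a 50*4.6 C18 column. The 10→95% acetonitrile gradient (0.1%/0.09% formic acid) lasted 4.25 min plus a 1.25 min hold; mass detection was by MSD.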

[11] = system: adult dog ticks (Rhipicephalus sanguineus); assay: Rhipicephalus sanguineus in vitro contact test with adult brown dog ticks (T2); conditions: after 48 h
In short: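 Acetone solutions coated onto test tube walls and floor, giving 5 μg/cm^2 at 900 ppm. Five to ten adult ticks held per tube in the dark at room temperature for 48 h, then heated at 45-50° C for up to 5 min; efficacy is the percentage of dead or moribund ticks unable to climb away.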

| SMILES | efficacy in % ([1]; application rate 500 g/ha) [%] | efficacy in % ([2]; application rate 500 g/ha) [%] | efficacy in % ([3]; application rate 500 g/ha) [%] | efficacy (laying of fertile eggs) [4] [%] | efficacy (kill in %) [5] [%] | efficacy (kill in %) [6] [%] | efficacy in % ([7]; application rate 500 g/ha) [%] | efficacy (kill in %) [8] [%] | efficacy in % ([1]; application rate 100 g/ha) [%] | efficacy in % ([2]; application rate 100 g/ha) [%] | efficacy in % ([3]; application rate 100 g/ha) [%] | efficacy (dead or moribund fleas) ([9]; application rate 1 μg/cm^2) [%] | efficacy (dead or moribund fleas) ([9]; application rate 5 μg/cm^2) [%] | logP [10] | efficacy in % ([7]; application rate 100 g/ha) [%] | efficacy (dead or moribund ticks) ([11]; application rate 1 μg/cm^2) [%] | efficacy (dead or moribund ticks) ([11]; application rate 5 μg/cm^2) [%] |
| --- | --- | --- | --- | --- | --- | --- | --- | --- | --- | --- | --- | --- | --- | --- | --- | --- | --- |
| Cn1nc(C(F)(F)C(F)(F)F)c(C(F)(F)F)c1-n1cc(-c2cc(F)c(F)c(C(=O)NC3CC3)c2)cn1 [Ic-55] | 100 | 100 | 100 | 100 | 100 | 100 | 80 | 100 | – | – | – | – | – | – | – | – | – |
| CON=Cc1ccc(-c2cnn(-c3c(C(F)(F)F)c(C(F)(F)C(F)(F)F)nn3C)c2)cc1C(=O)NC1CC1 (mixture of isomers) [Ic-118] | – | – | – | – | – | – | – | – | 100 | 100 | 100 | 100 | 100 | 3.99 | 100 | – | – |
| Cn1nc(C(F)(F)C(F)(F)F)c(C(F)(F)F)c1-n1cc(-c2ccc(Cl)c(C(=O)NC3CCCC3)c2)cn1 [Ic-141] | 100 | 100 | 100 | – | – | – | 100 | – | – | – | – | 100 | 100 | – | – | 80 | 100 |
| Cn1nc(C(F)(F)C(F)(F)F)c(C(F)(F)F)c1-n1cc(-c2cccc(C(=O)NC3(C#N)CC3)c2F)cn1 [Ic-40] | 100 | 100 | 100 | 100 | 100 | 100 | 100 | 100 | – | – | – | – | – | – | – | – | – |
| Cn1nc(C(F)(F)F)c(C(F)F)c1-n1cc(-c2ccc(Cl)c(C(=O)NC3CC3)c2)cn1 [Ic-133] | – | – | – | – | – | – | – | – | 100 | 100 | 100 | – | – | 3.01 | 100 | – | – |
| CSc1ccc(-c2cnn(-c3c(C(F)(F)F)c(C(F)(F)C(F)(F)F)nn3C)c2)cc1C(=O)NC1CC1 [Ic-182] | – | – | – | – | – | – | – | – | 100 | 100 | 100 | – | – | 3.81 | 90 | – | – |
| Cn1nc(C(F)(F)C(F)(F)F)c(C(F)(F)F)c1-n1cc(-c2ccc(Cl)c(C(=O)NC3CS(=O)(=O)C3)c2)cn1 [Ic-117] | 90 | 100 | 100 | – | – | – | 100 | – | – | – | – | – | – | 3.37 | – | – | – |
| CCOC1CC1NC(=O)c1cc(-c2cnn(-c3c(C(F)(F)F)c(C(F)(F)C(F)(F)F)nn3C)c2)ccc1Cl (stereo not shown) [Ic-186] | – | 100 | 100 | – | – | – | 90 | – | 90 | – | – | – | – | 3.73 | – | – | – |
| Cc1ccc(-c2cnn(-c3c(C(F)(F)F)c(C(F)(F)C(F)(F)F)nn3C)c2)cc1C(=O)NC1(C#N)CC1 [Ic-129] | – | – | – | – | – | – | – | – | 90 | 100 | 100 | – | – | 3.73 | 100 | – | – |
| CSC1CC(NC(=O)c2cc(-c3cnn(-c4c(C(F)(F)F)c(C(F)(F)C(F)(F)F)nn4C)c3)ccc2Cl)C1 (stereo not shown) [Ic-108] | – | – | – | – | – | – | – | – | 90 | 100 | 83 | 100 | 100 | 4.28 | 100 | – | 80 |
| CSCCNC(=O)c1cc(-c2cnn(-c3c(C(F)(F)F)c(C(F)(F)C(F)(F)F)nn3C)c2)ccc1Cl [Ic-167] | 90 | 100 | 100 | – | – | – | 100 | – | – | – | – | 100 | 100 | – | – | 100 | 100 |
| Cn1nc(C(F)(F)F)c(CF)c1-n1cc(-c2ccc(Cl)c(C(=O)NC3(C#N)CC3)c2)cn1 [Ic-115] | – | – | – | – | – | – | – | – | 90 | 100 | 100 | – | – | 2.89 | 100 | – | – |
| COC1(NC(=O)c2cc(-c3cnn(-c4c(C(F)(F)F)c(C(F)(F)C(F)(F)F)nn4C)c3)ccc2Cl)CC1 [Ic-187] | 90 | 100 | 100 | – | – | – | 100 | – | – | – | – | – | – | 3.83 | – | – | – |
| CC1CC1NC(=O)c1cc(-c2cnn(-c3c(C(F)(F)F)c(C(F)(F)C(F)(F)F)nn3C)c2)ccc1Cl (stereo not shown) [Ic-79] | – | – | – | – | – | – | – | – | 90 | 100 | 100 | – | – | 4.15 | 100 | – | – |
| Cn1nc(C(F)(F)C(F)(F)F)c(C(F)(F)F)c1-n1cc(-c2ccc(Cl)c(C(=O)NC3(C4CC4)CC3)c2)cn1 [Ic-188] | 100 | 100 | 100 | – | – | – | 100 | – | – | – | – | – | – | 4.43 | – | – | – |
| Cn1nc(C(F)(F)C(F)(F)F)c(C(F)(F)F)c1-n1cc(-c2ccc(Cl)c(C(=S)NC3CC3)c2)cn1 [Ic-132] | – | – | – | – | – | – | – | – | 90 | 100 | 100 | – | – | 4.34 | 100 | – | – |
